Assay type in all cases: biochemical
The target in one test is sucrase. In words: Sucrase inhibition assay. The following applies: mean ± SD; acarbose positive control; read-out: IC50 Values Against Sucrase. The source says: The HPLC-grade methanol and acetonitrile were purchased from CINC High Purity Solvents (Shanghai) Co., Ltd. (Shanghai, China). The other solvents were of analytical grade (Sinopharm Chemical Reagent Co., Ltd., Beijing, China). Porcine pancreatic α-amylase (PPA) and PL were purchased from Sigma Aldrich Co. (St Louis, MO, USA). Sucrase and acarbose were obtained from Shanghai yuanye Bio-Technology Co., Ltd. (Shanghai, China). Orlistat was bought from Shanghai xushuo Bio-Technology Co., Ltd. (Shanghai, China). Standards 1–9 were previously isolated from Streptomyces sp. HO1518 by our group.
The sucrase inhibition assay of compounds 9–20 was evaluated according to the previously reported method.

In another test the target is T1, pancreatic lipase (PL) (Sus scrofa, UniProt P00591).
T1 construct: purchased Sigma Aldrich Co. (St Louis, MO, USA)
T1 sequence (P00591 1-450): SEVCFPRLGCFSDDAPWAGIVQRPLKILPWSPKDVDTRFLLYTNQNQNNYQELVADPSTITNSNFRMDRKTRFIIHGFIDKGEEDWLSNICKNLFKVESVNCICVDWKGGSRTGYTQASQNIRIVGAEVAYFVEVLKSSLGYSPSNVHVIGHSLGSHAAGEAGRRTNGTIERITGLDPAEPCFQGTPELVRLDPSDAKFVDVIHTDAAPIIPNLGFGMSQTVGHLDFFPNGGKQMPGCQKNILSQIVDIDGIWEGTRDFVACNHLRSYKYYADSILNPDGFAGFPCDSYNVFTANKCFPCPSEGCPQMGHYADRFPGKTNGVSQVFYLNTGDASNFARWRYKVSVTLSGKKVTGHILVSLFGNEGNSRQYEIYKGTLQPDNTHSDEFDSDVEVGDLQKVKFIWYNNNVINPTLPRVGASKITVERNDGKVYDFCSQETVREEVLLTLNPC
In words: PL (lipase) inhibition assay. Conditions: read-out: IC50 Values Against PL. An excerpt:
(§1) The HPLC-grade methanol and acetonitrile were purchased from CINC High Purity Solvents (Shanghai) Co., Ltd. (Shanghai, China). The other solvents were of analytical grade (Sinopharm Chemical Reagent Co., Ltd., Beijing, China). Porcine pancreatic α-amylase (PPA) and PL were purchased from Sigma Aldrich Co. (St Louis, MO, USA). […] Standards 1–9 were previously isolated from Streptomyces sp. HO1518 by our group.

Test [1] concerns the target T2, Porcine pancreatic α-amylase (PPA) (Sus scrofa, UniProt P00690).
T2 construct: purchased Sigma Aldrich Co. (St Louis, MO, USA)
T2 sequence (P00690 16-511): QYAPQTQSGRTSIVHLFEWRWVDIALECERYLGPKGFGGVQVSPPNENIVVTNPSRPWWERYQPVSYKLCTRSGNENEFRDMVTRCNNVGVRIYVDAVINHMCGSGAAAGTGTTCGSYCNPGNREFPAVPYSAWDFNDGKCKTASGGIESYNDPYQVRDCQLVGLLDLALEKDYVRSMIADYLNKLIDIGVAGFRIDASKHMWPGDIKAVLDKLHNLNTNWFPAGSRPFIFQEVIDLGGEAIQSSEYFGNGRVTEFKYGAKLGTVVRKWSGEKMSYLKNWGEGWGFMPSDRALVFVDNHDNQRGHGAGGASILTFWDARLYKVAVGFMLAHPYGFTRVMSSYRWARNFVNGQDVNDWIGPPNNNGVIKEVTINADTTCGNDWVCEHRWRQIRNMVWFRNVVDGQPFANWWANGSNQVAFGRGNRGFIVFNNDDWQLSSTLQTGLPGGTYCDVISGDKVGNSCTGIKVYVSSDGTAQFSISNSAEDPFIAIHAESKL
In words: PPA inhibition assay. The following applies: for IC50: read-out: IC50 Values Against PPA.
Source text: as §1

Where [2] appears, read: mean ± SD, orlistat positive control.
[3] abbreviates: mean ± SD, acarbose positive control.

Read-outs that look alike come from different tables or passages of the source.

By IC50 is commonly meant the concentration needed to halve the response being measured. Consider `CC1OC(OC2C(CO)OC(OC3C(CO)=CC(NC4C(C)OC(OC5C(CO)OC(OC6C(CO)OC(OC7C(CO)OC(OC8C(CO)OC(O)C(O)C8O)C(O)C7O)C(O)C6O)C(O)C5O)C(O)C4O)C(O)C3O)C(O)C2O)C(O)C(O)C1NC1C=C(CO)C(O)C(O)C1O` (stereo not drawn) [Compound 9, acarviostatin II03], for which the IC50 on sucrase was 17.2 ± 0.76 µM; at pancreatic lipase (PL) it was 7.64 ± 0.13 µM; in test [1], 0.03 ± 0.001 µM. The “fold more effective than acarbose (α-amylase inhibition)” value in test [1] (ratio of PPA IC50 values, acarbose vs compound) is 282 fold.

Consider `C[C@H]1O[C@H](O[C@H]2[C@H](O)[C@@H](O)[C@@H](O[C@H]3[C@H](O)[C@@H](O)[C@@H](O[C@H]4[C@H](O)[C@@H](O)C(O)O[C@@H]4CO)O[C@@H]3CO)O[C@@H]2CO)[C@H](O)[C@@H](O)[C@@H]1N[C@H]1C=C(CO)[C@@H](O[C@H]2O[C@H](CO)[C@@H](O[C@H]3O[C@H](C)[C@@H](N[C@H]4C=C(CO)[C@@H](O)[C@H](O)[C@H]4O)[C@H](O)[C@H]3O)[C@H](O)[C@H]2O)[C@H](O)[C@H]1O` (stereo partly drawn) [Compound 10, Acarviostatin II02], for which the IC50 at sucrase was found to be 13.1 ± 0.55 µM; at pancreatic lipase (PL), 12.7 ± 0.76 µM; in test [1] it was 0.084 ± 0.001 µM.

Turning to `CCC(=O)OC[C@H]1O[C@H](O[C@H]2[C@H](O)[C@@H](O)[C@@H](O[C@H]3[C@H](O)[C@@H](O)C(O)O[C@@H]3CO)O[C@@H]2CO)[C@H](O)[C@@H](O)[C@@H]1O[C@H]1O[C@H](C)[C@@H](N[C@H]2C=C(CO)[C@@H](O[C@H]3O[C@H](CO)[C@@H](O[C@H]4O[C@H](C)[C@@H](N[C@H]5C=C(CO)[C@@H](O)[C@H](O)[C@H]5O)[C@H](O)[C@H]4O)[C@H](O)[C@H]3O)[C@H](O)[C@H]2O)[C@H](O)[C@H]1O` (stereo partly drawn) [Compound 11, D6-O-Propionyl-acarviostatin II02], the figures for the 50% inhibitory concentration (IC50) (on sucrase; on pancreatic lipase (PL); in test [1]) were 4.34 ± 0.24 µM, 7.22 ± 0.1 µM and 0.079 ± 0.001 µM, respectively.

As to `CC(C)C(=O)OC[C@H]1O[C@H](O[C@H]2[C@H](O)[C@@H](O)[C@@H](O[C@H]3[C@H](O)[C@@H](O)C(O)O[C@@H]3CO)O[C@@H]2CO)[C@H](O)[C@@H](O)[C@@H]1O[C@H]1O[C@H](C)[C@@H](N[C@H]2C=C(CO)[C@@H](O[C@H]3O[C@H](CO)[C@@H](O[C@H]4O[C@H](C)[C@@H](N[C@H]5C=C(CO)[C@@H](O)[C@H](O)[C@H]5O)[C@H](O)[C@H]4O)[C@H](O)[C@H]3O)[C@H](O)[C@H]2O)[C@H](O)[C@H]1O` (stereo partly drawn) [Compound 12, D6-O-Isobutyryl-acarviostatin II02], the half-inhibitory concentration (IC50) is 6.79 ± 0.06 µM at sucrase, 5.48 ± 0.18 µM on pancreatic lipase (PL) and 0.085 ± 0.006 µM in test [1].

For `CC(C)CC(=O)OC[C@H]1O[C@H](O[C@H]2[C@H](O)[C@@H](O)[C@@H](O[C@H]3[C@H](O)[C@@H](O)C(O)O[C@@H]3CO)O[C@@H]2CO)[C@H](O)[C@@H](O)[C@@H]1O[C@H]1O[C@H](C)[C@@H](N[C@H]2C=C(CO)[C@@H](O[C@H]3O[C@H](CO)[C@@H](O[C@H]4O[C@H](C)[C@@H](N[C@H]5C=C(CO)[C@@H](O)[C@H](O)[C@H]5O)[C@H](O)[C@H]4O)[C@H](O)[C@H]3O)[C@H](O)[C@H]2O)[C@H](O)[C@H]1O` (stereo partly drawn) [Compound 13, D6-O-Isovaleryl-acarviostatin II02], the IC50 was determined as 7.06 ± 0.09 µM on sucrase, 1.56 ± 0.04 µM at pancreatic lipase (PL) and 0.092 ± 0.001 µM in test [1].

Take `CCC(=O)OC[C@H]1O[C@H](O[C@H]2[C@H](O)[C@@H](O)[C@@H](O[C@H]3[C@H](O)[C@@H](O)[C@@H](O[C@H]4[C@H](O)[C@@H](O)C(O)O[C@@H]4CO)O[C@@H]3CO)O[C@@H]2CO)[C@H](O)[C@@H](O)[C@@H]1O[C@H]1O[C@H](C)[C@@H](N[C@H]2C=C(CO)[C@@H](O[C@H]3O[C@H](CO)[C@@H](O[C@H]4O[C@H](C)[C@@H](N[C@H]5C=C(CO)[C@@H](O)[C@H](O)[C@H]5O)[C@H](O)[C@H]4O)[C@H](O)[C@H]3O)[C@H](O)[C@H]2O)[C@H](O)[C@H]1O` (stereo partly drawn) [Compound 14, D6-O-Propionyl-acarviostatin II03]: the results for the half-maximal inhibitory concentration (IC50) (at sucrase; on pancreatic lipase (PL) (setting [2]); in test [1] (setting [3])) were 2.56 ± 0.12 µM, 4.21 ± 0.03 µM and 0.035 ± 0.001 µM, respectively.

For `CCCC(=O)OC[C@H]1O[C@H](O[C@H]2[C@H](O)[C@@H](O)[C@@H](O[C@H]3[C@H](O)[C@@H](O)[C@@H](O[C@H]4[C@H](O)[C@@H](O)C(O)O[C@@H]4CO)O[C@@H]3CO)O[C@@H]2CO)[C@H](O)[C@@H](O)[C@@H]1O[C@H]1O[C@H](C)[C@@H](N[C@H]2C=C(CO)[C@@H](O[C@H]3O[C@H](CO)[C@@H](O[C@H]4O[C@H](C)[C@@H](N[C@H]5C=C(CO)[C@@H](O)[C@H](O)[C@H]5O)[C@H](O)[C@H]4O)[C@H](O)[C@H]3O)[C@H](O)[C@H]2O)[C@H](O)[C@H]1O` (stereo partly drawn) [Compound 15, D6-O-Butyryl-acarviostatin II03], the half-inhibitory concentration (IC50) was determined as 10.7 ± 2.6 µM on sucrase, 4.46 ± 0.14 µM on pancreatic lipase (PL) (setting [2]) and 0.059 ± 0.007 µM in test [1] (setting [3]).

Regarding `CCC(C)C(=O)OC[C@H]1O[C@H](O[C@H]2[C@H](O)[C@@H](O)[C@@H](O[C@H]3[C@H](O)[C@@H](O)[C@@H](O[C@H]4[C@H](O)[C@@H](O)C(O)O[C@@H]4CO)O[C@@H]3CO)O[C@@H]2CO)[C@H](O)[C@@H](O)[C@@H]1O[C@H]1O[C@H](C)[C@@H](N[C@H]2C=C(CO)[C@@H](O[C@H]3O[C@H](CO)[C@@H](O[C@H]4O[C@H](C)[C@@H](N[C@H]5C=C(CO)[C@@H](O)[C@H](O)[C@H]5O)[C@H](O)[C@H]4O)[C@H](O)[C@H]3O)[C@H](O)[C@H]2O)[C@H](O)[C@H]1O` (stereo partly drawn) [Compound 16, D6-O-2-Methyl-butyryl-acarviostatin II03], the figures for the concentration for half-maximal inhibition (IC50) (on sucrase; at pancreatic lipase (PL) (setting [2]); in test [1] (setting [3])) were 7.28 ± 0.1 µM, 1.34 ± 0.03 µM and 0.052 ± 0.003 µM, respectively.

In the case of `C[C@H]1O[C@H](O[C@H]2[C@H](O)[C@@H](O)[C@@H](O[C@H]3[C@H](O)[C@@H](O)[C@@H](O[C@H]4[C@H](O)[C@@H](O)[C@@H](O[C@H]5[C@H](O)[C@@H](O)C(O)O[C@@H]5CO)O[C@@H]4CO)O[C@@H]3CO)O[C@@H]2CO)[C@H](O)[C@@H](O)[C@@H]1N[C@H]1C=C(CO)[C@@H](O)[C@H](O)[C@H]1O` (stereo partly drawn) [Compound 17, acarviostatin I03], the values for the half-inhibitory concentration (IC50) (on sucrase; on pancreatic lipase (PL); in test [1]) were 11.1 ± 0.24 µM, 31.6 ± 4.13 µM and 0.296 ± 0.007 µM, respectively.

Regarding `CCCC(=O)OC[C@H]1O[C@H](O[C@H]2[C@H](O)[C@@H](O)[C@@H](O[C@H]3[C@H](O)[C@@H](O)[C@@H](O[C@H]4[C@H](O)[C@@H](O)C(O)O[C@@H]4CO)O[C@@H]3CO)O[C@@H]2CO)[C@H](O)[C@@H](O)[C@@H]1O[C@H]1O[C@H](C)[C@@H](N[C@H]2C=C(CO)[C@@H](O)[C@H](O)[C@H]2O)[C@H](O)[C@H]1O` (stereo partly drawn) [Compound 18, Bu-Aca I03], the 50% inhibitory concentration (IC50) at sucrase worked out at 3.8 ± 0.78 µM; on pancreatic lipase (PL) it was 11.7 ± 2.52 µM; in test [1], 0.402 ± 0.008 µM.

Turning to `CC(O)CC(=O)OC[C@H]1O[C@H](O[C@H]2[C@H](O)[C@@H](O)[C@@H](O[C@H]3[C@H](O)[C@@H](O)[C@@H](O[C@H]4[C@H](O)[C@@H](O)C(O)O[C@@H]4CO)O[C@@H]3CO)O[C@@H]2CO)[C@H](O)[C@@H](O)[C@@H]1O[C@H]1O[C@H](C)[C@@H](N[C@H]2C=C(CO)[C@@H](O[C@H]3O[C@H](CO)[C@@H](O[C@H]4O[C@H](C)[C@@H](N[C@H]5C=C(CO)[C@@H](O)[C@H](O)[C@H]5O)[C@H](O)[C@H]4O)[C@H](O)[C@H]3O)[C@H](O)[C@H]2O)[C@H](O)[C@H]1O` (stereo partly drawn) [Compound 19, Hbu-Aca II03], the concentration for half-maximal inhibition (IC50) stood at 9.67 ± 0.1 µM at sucrase, 1 ± 0.12 µM at pancreatic lipase (PL) (setting [2]) and 0.061 ± 0.005 µM in test [1] (setting [3]).

Consider `C[C@H]1O[C@H](O[C@H]2[C@H](O)[C@@H](O)[C@@H](O[C@H]3[C@H](O)[C@@H](O)C(O)O[C@@H]3CO)O[C@@H]2CO)[C@H](O)[C@@H](O)[C@@H]1N[C@H]1C=C(CO)[C@@H](O)[C@H](O)[C@H]1O` (stereo partly drawn) [acarbose, reference compound], for which the half-maximal inhibitory concentration (IC50) at sucrase was found to be 2.34 ± 0.23 µM; at pancreatic lipase (PL) it was 191 ± 15.2 µM.

Source of the values: article PMC8955712, “Rapid Mining of Novel α-Glucosidase and Lipase Inhibitors from Streptomyces sp. HO1518 Using UPLC-QTOF-MS/MS” (Marine Drugs, 2022).
